Measured values as given in ChEMBL document CHEMBL1148633, “Inhibition of carbonic anhydrase-II by sulfamate and sulfamide groups: an investigation involving direct thermodynamic binding measurements” (J Med Chem, 2006).

How the values were obtained:
Carbonic anhydrase 2 [1] = target: T1, Carbonic anhydrase 2 (Homo sapiens, UniProt P00918); experiment: Inhibition of human CA2 by 4-nitrophenyl acetate hydrolysis
Carbonic anhydrase 2 [2] = target: T1, Carbonic anhydrase 2; experiment: Binding affinity to human CA2 at pH 7.4 by ThermoFluor assay
Carbonic anhydrase 2 [3] = target: T1, Carbonic anhydrase 2; experiment: Binding affinity to human CA2 in presence of sodium sulfate and ANS at pH 7.5 by ThermoFluor assay
Carbonic anhydrase 2 [4] = target: T1, Carbonic anhydrase 2
Description: Inhibition of human CA2 by carbon dioxide hydration

SMILES | Ki (Carbonic anhydrase 2 [1]) [nM] | Kd (Carbonic anhydrase 2 [2]) [nM] | Kd (Carbonic anhydrase 2 [3]) [nM] | Ki (Carbonic anhydrase 2 [4]) [nM]
COc1ccc(NS(N)(=O)=O)cc1 | 18800 | 5000 | 2650 | 14400
NS(=O)(=O)Nc1ccc([N+](=O)[O-])cc1 | 1740 | 1500 | 1000 | 892
